Earlier results in patent publication US9738620B2, “Trientine prodrugs, pharmaceutical compositions thereof, and methods of use” (priority 2015, dated 2017).

Conditions: Lu., Molecular Cancer Therapeutics. 2010, 9 (9), 2458-67

## NCCNCCNCCN [Trientine]
  oral bioavailability: 8-30%
